Common to all, as to type: cell-based
The test system of one assay is NCI-N87. The assay is described as follows: Inhibition of proliferation of cells NCI-N87 (CelltiterGlo, 72 h). Here is the method: (§1) • (1) Cell plating: first, tumor cells NCI-N87 were cultured using a corresponding culture medium, trypsinized, centrifuged, resuspended for counting, adjusted to an appropriate concentration, and then plated on a 384-well plate. • (2) Co-incubation of the compounds and tumor cells: after the cells adhered to the wall, 100 nL of a diluted bioactive substance (test compound) was added to the cell culture plate using ECHO, the final concentration of DMSO in wells of the cell plate was 0.33%, and the incubation was performed in an incubator at 37° C. with 0% CO2 for 72 h. • (3) After the incubation was complete, 30 μL of a CTG reagent (CelltiterGlo kit) was added to each well. The culture was oscillated on a fast oscillator for 2 min, centrifuged at 1,000 rpm for 1 min, and kept away from light at room temperature for 30 min. The chemiluminescence signal value was read using an Envision instrument. • (4) Cell viability detection: IC50 was calculated using GraphPad Prism 8 software, and the IC50 of the compounds was obtained using the following nonlinear fitting formula (see Table 3):
[formula] • Y: inhibition rate, X: log value of compound concentration;
(§2) [formula] • high-reading control wells: cells with addition of 100 nL DMSO; and • low-reading control wells: cell-free wells.
(ATP-based viability assays read luminescence as a measure of living cells.)

Another assay has as its system MDA-MB-468. The assay is described as follows: Inhibition of proliferation of cells MDA-MB-468 (CelltiterGlo, 72 h). How it is done:
as §1, with “MDA-MB-468” for “NCI-N87”, “2):” for “3):”
[formula] • Y: inhibition rate: X: log value of compound concentration;
as §2

The next assay deals with SK-BR-3. Kind of assay: Inhibition of proliferation of cells SK-BR-3 (CelltiterGlo, 72 h). Here is the method:
as §1, with “SK-BR-3” for “NCI-N87”, “5%” for “0%”, “1):” for “3):”
[formula] • Y: inhibition rate; X: log value of compound concentration-,
as §2

[1] abbreviates: Homo sapiens, NCI-N87, 72 h, read-out: IC50 (nM), antiproliferative activity on cells NCI-N87, NCI-N87 cells, 72 h, CTG.
[2] abbreviates: Homo sapiens, MDA-MB-468, 72 h, read-out: IC50 (nM), antiproliferative activity on MDA-MB-468, MDA-MB-468 cells, 72 h, CTG.
Setting [3] is: Homo sapiens, SK-BR-3, 72 h, read-out: IC50 (nM), antiproliferative activity on SK-BR-3, SK-BR-3 cells, 72 h, CTG.
The mark [4] stands for this setting: NCI-N87 cells, 72 h, CTG, read-out: IC50 (nM), antiproliferative activity on cells NCI-N87.
[5] abbreviates: MDA-MB-468 cells, 72 h, CTG, read-out: IC50 (nM), antiproliferative activity on MDA-MB-468.

Like-named read-outs stand apart in the source and are kept apart here.

For orientation: IC50 means the concentration at which inhibition is half-maximal. For the compound `CC[C@@]1(O)C(=O)OCc2c1cc1n(c2=O)Cc2c-1nc1cc(F)c(C)c3c1c2[C@@H](NC(=O)[C@H]1C[C@@H](O)C1)CCC3` [Compound 10, (1S,3R)—N-((1S,10S)-10-ethyl-6-fluoro-10-hydroxy-5-methyl-11,14-dioxo-1,2,3,4,10,11,14,16-octahydro-13H-cyclohepta[de]pyrano[3′,4′:6,7]indolizino[1,2-b]quinolin-1-yl)-3-hydroxycyclobutane-1-carboxamide], the results for the half-inhibitory concentration (IC50) in the assay with NCI-N87 (setting [1]), in the assay with MDA-MB-468 (setting [2]) and with SK-BR-3 (setting [3]) were 23 nM, 13 nM and 10 nM, respectively.
In the case of `CC[C@@]1(O)C(=O)OCc2c1cc1n(c2=O)Cc2c-1nc1cc(F)c(C)c3c1c2[C@@H](NC(=O)[C@H](O)C1CC1)CCC3` [Compound 11-1, (R)-2-cyclopropyl-N-((1S,10S)-10-ethyl-6-fluoro-10-hydroxy-5-methyl-11,14-dioxo-1,2,3,4,10,11,14,16-octahydro-13H-cyclohepta[de]pyrano[3′,4′:6,7]indolizino[1,2-b]quinolin-1-yl)-2-hydroxyacetamide], the IC50 in the assay with NCI-N87 (Homo sapiens, NCI-N87 cells, 72 h, CTG, read-out: IC50 (nM), antiproliferative activity on cells NCI-N87) amounted to 2.5 nM; with MDA-MB-468 (Homo sapiens, MDA-MB-468 cells, 72 h, CTG, read-out: IC50 (nM), antiproliferative activity on MDA-MB-468), 3.9 nM; in the assay with SK-BR-3 (Homo sapiens, SK-BR-3 cells, 72 h, CTG, read-out: IC50 (nM), antiproliferative activity on SK-BR-3) it was 2.2 nM.
Take `C=Cc1c(F)cc2nc3c(c4c2c1CC[C@@H]4NC(=O)[C@H]1C[C@@H](O)C1)Cn1c-3cc2c(c1=O)COC(=O)[C@]2(O)CC` [Compound 12, (1S,3R)—N-((1S,9S)-9-ethyl-5-fluoro-9-hydroxy-10,13-dioxo-4-ethenyl-2,3,9,10,13,15-hexahydro-1H,12H-benzo[d]pyrano[3′,4′:6,7]indolizino[1,2-b]quinolin-1-yl)-3-hydroxycyclobutane-1-carboxamide]: the IC50 amounted to 20 nM in the assay with NCI-N87 (setting [1]), 9.3 nM in the assay on MDA-MB-468 (setting [2]) and 5.7 nM with SK-BR-3 (setting [3]).
`CC[C@@]1(O)C(=O)OCc2c1cc1n(c2=O)Cc2c-1nc1cc(F)c(C3CC3)c3c1c2C(NC(=O)[C@H]1C[C@@H](O)C1)CC3` (stereo partly drawn) [Compound 18-1, (1S,3S)—N-((1R,9S)-4-cyclopropyl-9-ethyl-5-fluoro-9-hydroxy-10,13-dioxo-2,3,9,10,13,15-hexahydro-1H,12H-benzo[d]pyrano[3′,4′:6,7]indolizino[1,2-b]quinolin-1-yl)-3-hydroxycyclobutane-1-carboxamide]: the half-inhibitory concentration (IC50) with NCI-N87 (setting [1]) stood at 11.2 nM; in the assay with SK-BR-3 (setting [3]), 13.8 nM.
For the compound `CC[C@@]1(O)C(=O)OCc2c1cc1n(c2=O)Cc2c-1nc1cc(F)c(C3CC3)c3c1c2[C@@H](NC(=O)[C@H](O)C1CC1)CCC3` [Compound 33-1, (R)-2-cyclopropyl-N-((1S,10S)-5-cyclopropyl-10-ethyl-6-fluoro-10-hydroxy-11,14-dioxo-1,2,3,4,10,11,14,16-octahydro-13H-cyclohepta[3′,4′:6,7]indolizino[1,2-b]quinolin-1-yl)-2-hydroxyacetamide], the IC50 with NCI-N87 (setting [4]) was determined as 8 nM; in the assay with MDA-MB-468 (setting [5]), 6 nM.
For `CC[C@@]1(O)C(=O)OCc2c1cc1n(c2=O)Cc2c-1nc1cc(F)c(C3CC3)c3c1c2[C@@H](NC(=O)[C@@H](O)C1CC1)CCC3` [Compound 33-2, (S)-2-cyclopropyl-N-((1S,10S)-5-cyclopropyl-10-ethyl-6-fluoro-10-hydroxy-11,14-dioxo-1,2,3,4,10,11,14,16-octahydro-13H-cyclohepta[3′,4′:6,7]indolizino[1,2-b]quinolin-1-yl)-2-hydroxyacetamide], the IC50 was 9 nM in the assay with NCI-N87 (setting [4]) and 5 nM in the assay on MDA-MB-468 (setting [5]).
For `CC[C@@]1(O)C(=O)OCc2c1cc1n(c2=O)Cc2c-1nc1cc(F)c(C3CC3)c3c1c2[C@@H](NC(=O)C[C@H](O)C1CC1)CC3` [Compound 34-1, (S)-3-cyclopropyl-N-((1S,9S)-4-cyclopropyl-9-ethyl-5-fluoro-9-hydroxy-10,13-dioxo-2,3,9,10,13,15-hexahydro-1H,12H-benzo[d]pyrano[3′,4′:6,7]indolizino[1,2-b]quinolin-1-yl)-3-hydroxypropanamide], in that order: 6 nM and 4 nM.
Consider `CC[C@@]1(O)C(=O)OCc2c1cc1n(c2=O)Cc2c-1nc1cc(F)c(C3CC3)c3c1c2[C@@H](NC(=O)C[C@@H](O)C1CC1)CC3` [Compound 34-2, (R)-3-cyclopropyl-N-((1S,9S)-4-cyclopropyl-9-ethyl-5-fluoro-9-hydroxy-10,13-dioxo-2,3,9,10,13,15-hexahydro-1H,12H-benzo[d]pyrano[3′,4′:6,7]indolizino[1,2-b]quinolin-1-yl)-3-hydroxypropanamide], for which the IC50 with NCI-N87 (setting [1]) was 6 nM; with MDA-MB-468 (setting [2]) it was 4 nM; in the assay on SK-BR-3 (setting [3]), 4.8 nM.
For `CC[C@@]1(O)C(=O)OCc2c1cc1n(c2=O)Cc2c-1nc1cc(F)c(C)c3c1c2[C@@H](NC(=O)[C@@H](C)[C@@H](C)O)CCC3` [Compound 39, (2S,3R)—N-((1S,10S)-10-ethyl-6-fluoro-10-hydroxy-5-methyl-11,14-dioxo-1,2,3,4,10,11,14,16-octahydro-13H-cyclohepta[3′,4′:6,7]indolizino[1,2-b]quinolin-1-yl)-3-hydroxy-2-methylbutanamide], in that order: 9.3 nM, 15 nM and 11 nM.
For the compound “(1S,3S)—N-((1R,10S)-5-cyclopropyl-10-ethyl-6-fluoro-10-hydroxy-11,14-dioxo-1,2,3,4,10,11,14,16-octahydro-13H-cyclohepta[de]pyrano[3′,4′:6,7]indolizino[1,2-b]quinolin-1-yl)-3-hydroxybutane-1-carboxamide [Compound 20-1]”, the half-inhibitory concentration (IC50) in the assay on NCI-N87 (setting [4]) was 26 nM; in the assay on MDA-MB-468 (setting [5]) it was 15.6 nM; in the assay on SK-BR-3 (SK-BR-3 cells, 72 h, CTG, read-out: IC50 (nM), antiproliferative activity on SK-BR-3), 21 nM.
Take “(S)—N-((1S,10S)-10-ethyl-6-fluoro-10-hydroxy-5-methyl-11,14-dioxo-1,2,3,4,10,11,14,16-octahydro-13H-cyclohepta[3′,4′:6,7]indolizino[1,2-b]quinolin-1-yl)-3-hydroxy-4-methylpentanamide [Compound 37-1]”: the half-maximal inhibitory concentration (IC50) with MDA-MB-468 (setting [5]) was 19 nM.

Source of the values: patent US20260209242A1, “CAMPTOTHECIN DERIVATIVE, PHARMACEUTICAL COMPOSITION, AND PREPARATION METHOD AND USE THEREFOR” (priority 2022, published 2026).
